Reference: patent US20050054587A1, “Novel therapeutic indication of azithromycin for treatment of non-infective inflamatory diseases” (priority 2001, published 2005)

Test system: stimulated neutrophils
Test: fMLP-stimulated neutrophil oxidative burst, luminol chemiluminescence
Format: in vivo, human
Conditions: healthy volunteers, azithromycin 3×500 mg, baseline 29335 ± 1957
Method: A trial on healthy volunteers was conducted and the influence of azithromycin given in a dosage of 3×500 mg on selected inflammation-relevant parameters was followed up.
Each subject received two standard 250 mg capsules of azithromycin (Sumamed®, PLIVA Zagreb) on three consecutive days. Immediately before the treatment and 2 h and 30 min, 24 h and 28 days after the third and last dose of azithromycin blood was collected from the cubital vein into EDTA-containing tubes. Aliquots were taken for cell counting, smear preparation, polymorphonuclear cell and serum isolation.
The generation of reactive oxygen species by activated cells is frequently determined by the measurement of chemiluminescence (CL). The radical species formed react with a photon-producing chemical (e.g. Luminol) and the resulting light emission is measured with a photocell. Chemiluminescence is detectable as a result of the stimulation (e.g. fMLP) of leucocytes and is a measure of their oxidative cytotoxic activity (Allen et al., Biochem. Biophys. Res. Commun. (1972), 47: 679).
The results of the study presented in Table 1 show, that azithromycin inhibits chemiluminescence generated from stimulated neutrophils isolated from the blood of humans treated with azithromycin.

CC[C@H]1OC(=O)[C@H](C)[C@@H](O[C@H]2C[C@@](C)(OC)[C@@H](O)[C@H](C)O2)[C@H](C)[C@@H](O[C@@H]2O[C@H](C)C[C@H](N(C)C)[C@H]2O)[C@](C)(O)C[C@@H](C)CN(C)[C@H](C)[C@@H](O)[C@]1(C)O [azithromycin, 9-deoxo-9-dihydro-9a-methyl-9a-aza-9a-homoerythromycin A]
OXIDATIVE BURST (PMN) fMLP-luminol (2 h and 30 min after last dose): 14774 ± 1175 A.U. | OXIDATIVE BURST (PMN) fMLP-luminol (24 hours after last dose): 5053 ± 3804 A.U. | OXIDATIVE BURST (PMN) fMLP-luminol (28 days after last dose): 9879 ± 13880 A.U.
